Data taken from ChEMBL document CHEMBL4609985, “Superior inhibition of influenza virus hemagglutinin-mediated fusion by indole-substituted spirothiazolidinones” (Bioorg Med Chem, 2020).

Experiments:
[1] = tested on: Influenza A virus H3N2; test: Antiviral activity against IInfluenza A virus H3N2 A/HK/7/87 infected in MDCK cells after 4 days by MTS assay; format: functional, organism-based; conditions: A/HK/7/87, MDCK, 96 h
[2] = Cytotoxicity against MDCK cells assessed as minimum cytotoxic concentration after 4 days by MTS assay; format: cell-based, Canis lupus familiaris; conditions: dog
[3] = Cytotoxicity against MDCK cells assessed as reduction in cell viability after 4 days by MTS assay; format: cell-based, Canis lupus familiaris; conditions: dog
[4] = tested on: Influenza A virus H3N2; test: Antiviral activity against Influenza A virus H3N2 A/HK/7/87 infected in MDCK cells assessed as reduction in virus induced cytopathic effect after 4 days by microscopy based method; format: functional, organism-based; conditions: A/HK/7/87, MDCK, 96 h
[5] = Selectivity index, ratio of CC50 for MDCK cells to EC50 for antiviral activity against Influenza H3N2 A/HK/7/87 infected in MDCK cells after 4 days by MTS assay; format: toxicity, cell-based; conditions: dog, read-out: Ratio CC50/EC50
[6] = Inhibition of influenza H3N2 A/X-31 hemagglutinin 3 expressed in HeLa cells assessed as polykaryon formation preincubated for 15 mins and further incubated for 15 mins with acidic buffer containing compounds at pH 5.2 by giemsa staining based microscopic analysis; format: cell-based, Influenza A virus (A/X-31(H3N2)); conditions: Influenza A virus

SMILES	EC50 [1]	MCC at 96 h [2]	CC50 at 96 h [3]	EC50 [4]	selectivity ratio at 96 h [5]	EC50 [6]
CCCC1CCC2(CC1)SC(C)C(=O)N2NC(=O)c1[nH]c2ccc(Cl)cc2c1C (centres undefined)	> 100 µM	0.8 µM	1.9 µM	> 100 µM		
Cc1c(C(=O)NN2C(=O)CSC23CCCC3)[nH]c2ccc(Cl)cc12	> 100 µM	> 100 µM	> 100 µM	> 100 µM		
Cc1c(C(=O)NN2C(=O)C(C)SC23CCC(C(C)(C)C)CC3)[nH]c2ccc(Cl)cc12 (centres undefined)	> 100 µM	≥ 4 µM	0.9 µM	> 100 µM		
Cc1c(C(=O)NN2C(=O)C(C)SC23CCCCC3C)[nH]c2ccc(Cl)cc12 (centres undefined)	> 100 µM	≥ 20 µM	88 µM	> 100 µM		
NC12CC3CC(CC(C3)C1)C2 [AMANTADINE]	1.2 µM	> 200 µM	> 200 µM	3.8 µM		
Cc1c(C(=O)NN2C(=O)C(C)SC23CCCC(C)C3)[nH]c2ccc(Cl)cc12 (centres undefined)	0.023 µM	≥ 4 µM	33 µM	0.031 µM	1440	1.4 µM
CC(C)(C)c1cc(O)ccc1O [E319]						9.9 µM
Cc1c(C(=O)NN2C(=O)C(C)SC23CCC(c2ccccc2)CC3)[nH]c2ccc(Cl)cc12 (centres undefined)	> 100 µM	1 µM	2.3 µM	> 100 µM		
Cc1c(C(=O)NN2C(=O)C(C)SC23CCCC3)[nH]c2ccc(Cl)cc12 (centres undefined)	> 100 µM	> 100 µM	> 100 µM	> 100 µM		
CCCC1CCC2(CC1)SCC(=O)N2NC(=O)c1[nH]c2ccc(Cl)cc2c1C (centres undefined)	> 100 µM	0.8 µM	1.3 µM	> 100 µM		
CCC1CCC2(CC1)SCC(=O)N2NC(=O)c1[nH]c2ccc(Cl)cc2c1C (centres undefined)	> 100 µM	≥ 4 µM	94 µM	> 100 µM		
Cc1c(C(=O)NN2C(=O)CSC23CCC(c2ccccc2)CC3)[nH]c2ccc(Cl)cc12 (centres undefined)	> 100 µM	5 µM	2.4 µM	> 100 µM		
Cc1c(C(=O)NN2C(=O)CSC23CC(C)CC(C)(C)C3)[nH]c2ccc(Cl)cc12 (centres undefined)	> 100 µM	> 100 µM	> 100 µM	> 100 µM		
Cc1c(C(=O)NN2C(=O)CSC23CCCCC3)[nH]c2ccc(Cl)cc12	> 100 µM	> 100 µM	> 100 µM	> 100 µM		
CCOC(=O)c1c(CSc2ccccc2)n(C)c2cc(Br)c(O)c(CN(C)C)c12 [UMIFENOVIR]						40 µM
Cc1c(C(=O)NN2C(=O)C(C)SC23CCCCC3)[nH]c2ccc(Cl)cc12 (centres undefined)	0.063 µM	≥ 4 µM	5.8 µM	0.085 µM	92	1.3 µM
Cc1nc2sccn2c1C(=O)NN1C(=O)C(C)SC12CCC(C)CC2 (centres undefined)	3.2 µM	≥ 100 µM	> 100 µM	5 µM	> 31	1.1 µM
Cc1c(C(=O)NN2C(=O)CSC23CCCCC3C)[nH]c2ccc(Cl)cc12 (centres undefined)	> 100 µM	≥ 20 µM	> 100 µM	> 100 µM		
Cc1c(C(=O)NN2C(=O)CSC23CCC(C)CC3)[nH]c2ccc(Cl)cc12 (centres undefined)	> 100 µM	≥ 100 µM	> 100 µM	> 100 µM		
Cc1c(C(=O)NN2C(=O)CSC23CCC(C(C)(C)C)CC3)[nH]c2ccc(Cl)cc12 (centres undefined)	> 100 µM	0.8 µM	2.1 µM	> 100 µM		
NC(=O)c1ncn([C@@H]2O[C@H](CO)[C@@H](O)[C@H]2O)n1 [RIBAVIRIN]	4.6 µM	≥ 100 µM	> 100 µM	8.4 µM		
Cc1c(C(=O)NN2C(=O)C(C)SC23CCC(C)CC3)[nH]c2ccc(Cl)cc12 (centres undefined)	0.045 µM	0.87 µM	2.8 µM	0.063 µM	62	2.1 µM
Cc1c(C(=O)NN2C(=O)CSC23CCCC(C)C3)[nH]c2ccc(Cl)cc12 (centres undefined)	> 100 µM	≥ 100 µM	> 100 µM	> 100 µM		
CCC1CCC2(CC1)SC(C)C(=O)N2NC(=O)c1[nH]c2ccc(Cl)cc2c1C (centres undefined)	0.00077 µM	3 µM	1.5 µM	0.0012 µM	1950	0.88 µM
Cc1c(C(=O)NN2C(=O)C(C)SC23CC(C)CC(C)(C)C3)[nH]c2ccc(Cl)cc12 (centres undefined)	> 100 µM	20 µM	85 µM	> 100 µM		
